N#Cc1cccc([N+](=O)[O-])c1C#N
solubility (mole fraction) (in NMP, 278.15 K): 0.0839 | solubility (mole fraction) (in NMP, 283.15 K): 0.0936 | solubility (mole fraction) (in NMP, 288.15 K): 0.104 | solubility (mole fraction) (in NMP, 293.15 K): 0.115 | solubility (mole fraction) (in NMP, 298.15 K): 0.128 | solubility (mole fraction) (in NMP, 303.15 K): 0.141 | solubility (mole fraction) (in NMP, 308.15 K): 0.155 | solubility (mole fraction) (in NMP, 313.15 K): 0.17 | solubility (mole fraction) (in NMP, 318.15 K): 0.186 | solubility (mole fraction) (in NMP, 323.15 K): 0.203 | solubility (mole fraction) (in acetone, 278.15 K): 0.0204 | solubility (mole fraction) (in acetone, 283.15 K): 0.0242 | solubility (mole fraction) (in acetone, 288.15 K): 0.0286 | solubility (mole fraction) (in acetone, 293.15 K): 0.0338 | solubility (mole fraction) (in acetone, 298.15 K): 0.0399 | solubility (mole fraction) (in acetone, 303.15 K): 0.0472 | solubility (mole fraction) (in acetone, 308.15 K): 0.0558 | solubility (mole fraction) (in acetone, 313.15 K): 0.0661 | solubility (mole fraction) (in acetone, 318.15 K): 0.0783 | solubility (mole fraction) (in acetone, 323.15 K): 0.0929 | solubility (mole fraction) (in ethanol, 278.15 K): 0.000924 | solubility (mole fraction) (in ethanol, 283.15 K): 0.00111 | solubility (mole fraction) (in ethanol, 288.15 K): 0.00134 | solubility (mole fraction) (in ethanol, 293.15 K): 0.0016 | solubility (mole fraction) (in ethanol, 298.15 K): 0.00194 | solubility (mole fraction) (in ethanol, 303.15 K): 0.00232 | solubility (mole fraction) (in ethanol, 308.15 K): 0.00273 | solubility (mole fraction) (in ethanol, 313.15 K): 0.00325 | solubility (mole fraction) (in ethanol, 318.15 K): 0.00382 | solubility (mole fraction) (in ethanol, 323.15 K): 0.00448 | solubility (mole fraction) (in ethyl acetate, 278.15 K): 0.0178 | solubility (mole fraction) (in ethyl acetate, 283.15 K): 0.0208 | solubility (mole fraction) (in ethyl acetate, 288.15 K): 0.0242 | solubility (mole fraction) (in ethyl acetate, 293.15 K): 0.0281 | solubility (mole fraction) (in ethyl acetate, 298.15 K): 0.0324 | solubility (mole fraction) (in ethyl acetate, 303.15 K): 0.0372 | solubility (mole fraction) (in ethyl acetate, 308.15 K): 0.0426 | solubility (mole fraction) (in ethyl acetate, 313.15 K): 0.0487 | solubility (mole fraction) (in ethyl acetate, 318.15 K): 0.0555 | solubility (mole fraction) (in ethyl acetate, 323.15 K): 0.063 | solubility (mole fraction) (in ethylene glycol, 278.15 K): 0.0131 | solubility (mole fraction) (in ethylene glycol, 283.15 K): 0.0158 | solubility (mole fraction) (in ethylene glycol, 288.15 K): 0.019 | solubility (mole fraction) (in ethylene glycol, 293.15 K): 0.0226 | solubility (mole fraction) (in ethylene glycol, 298.15 K): 0.0268 | solubility (mole fraction) (in ethylene glycol, 303.15 K): 0.0317 | solubility (mole fraction) (in ethylene glycol, 308.15 K): 0.0373 | solubility (mole fraction) (in ethylene glycol, 313.15 K): 0.0438 | solubility (mole fraction) (in ethylene glycol, 318.15 K): 0.0512 | solubility (mole fraction) (in ethylene glycol, 323.15 K): 0.0596 | solubility (mole fraction) (in isobutanol, 278.15 K): 0.000381 | solubility (mole fraction) (in isobutanol, 283.15 K): 0.000424 | solubility (mole fraction) (in isobutanol, 288.15 K): 0.000477 | solubility (mole fraction) (in isobutanol, 293.15 K): 0.000552 | solubility (mole fraction) (in isobutanol, 298.15 K): 0.000643 | solubility (mole fraction) (in isobutanol, 303.15 K): 0.000765 | solubility (mole fraction) (in isobutanol, 308.15 K): 0.000921 | solubility (mole fraction) (in isobutanol, 313.15 K): 0.00111 | solubility (mole fraction) (in isobutanol, 318.15 K): 0.00135 | solubility (mole fraction) (in isobutanol, 323.15 K): 0.00169 | solubility (mole fraction) (in isopropanol, 278.15 K): 0.000561 | solubility (mole fraction) (in isopropanol, 283.15 K): 0.000681 | solubility (mole fraction) (in isopropanol, 288.15 K): 0.000837 | solubility (mole fraction) (in isopropanol, 293.15 K): 0.00103 | solubility (mole fraction) (in isopropanol, 298.15 K): 0.00125 | solubility (mole fraction) (in isopropanol, 303.15 K): 0.00151 | solubility (mole fraction) (in isopropanol, 308.15 K): 0.00179 | solubility (mole fraction) (in isopropanol, 313.15 K): 0.00216 | solubility (mole fraction) (in isopropanol, 318.15 K): 0.00257 | solubility (mole fraction) (in isopropanol, 323.15 K): 0.00305 | solubility (mole fraction) (in methanol, 278.15 K): 0.00203 | solubility (mole fraction) (in methanol, 283.15 K): 0.0024 | solubility (mole fraction) (in methanol, 288.15 K): 0.00283 | solubility (mole fraction) (in methanol, 293.15 K): 0.00332 | solubility (mole fraction) (in methanol, 298.15 K): 0.00388 | solubility (mole fraction) (in methanol, 303.15 K): 0.00452 | solubility (mole fraction) (in methanol, 308.15 K): 0.00523 | solubility (mole fraction) (in methanol, 313.15 K): 0.00597 | solubility (mole fraction) (in methanol, 318.15 K): 0.00695 | solubility (mole fraction) (in methanol, 323.15 K): 0.00796 | solubility (mole fraction) (in n-butanol, 278.15 K): 0.000411 | solubility (mole fraction) (in n-butanol, 283.15 K): 0.000478 | solubility (mole fraction) (in n-butanol, 288.15 K): 0.000569 | solubility (mole fraction) (in n-butanol, 293.15 K): 0.000686 | solubility (mole fraction) (in n-butanol, 298.15 K): 0.000836 | solubility (mole fraction) (in n-butanol, 303.15 K): 0.001 | solubility (mole fraction) (in n-butanol, 308.15 K): 0.0012 | solubility (mole fraction) (in n-butanol, 313.15 K): 0.00143 | solubility (mole fraction) (in n-butanol, 318.15 K): 0.00171 | solubility (mole fraction) (in n-butanol, 323.15 K): 0.00207 | solubility (mole fraction) (in n-propanol, 278.15 K): 0.000735 | solubility (mole fraction) (in n-propanol, 283.15 K): 0.000899 | solubility (mole fraction) (in n-propanol, 288.15 K): 0.00109 | solubility (mole fraction) (in n-propanol, 293.15 K): 0.00132 | solubility (mole fraction) (in n-propanol, 298.15 K): 0.00159 | solubility (mole fraction) (in n-propanol, 303.15 K): 0.00189 | solubility (mole fraction) (in n-propanol, 308.15 K): 0.00226 | solubility (mole fraction) (in n-propanol, 313.15 K): 0.00268 | solubility (mole fraction) (in n-propanol, 318.15 K): 0.00317 | solubility (mole fraction) (in n-propanol, 323.15 K): 0.00373 | solubility (mole fraction) (in toluene, 278.15 K): 0.000946 | solubility (mole fraction) (in toluene, 283.15 K): 0.00116 | solubility (mole fraction) (in toluene, 288.15 K): 0.00142 | solubility (mole fraction) (in toluene, 293.15 K): 0.00173 | solubility (mole fraction) (in toluene, 298.15 K): 0.0021 | solubility (mole fraction) (in toluene, 303.15 K): 0.00254 | solubility (mole fraction) (in toluene, 308.15 K): 0.00305 | solubility (mole fraction) (in toluene, 313.15 K): 0.00367 | solubility (mole fraction) (in toluene, 318.15 K): 0.00437 | solubility (mole fraction) (in toluene, 323.15 K): 0.00521 | solubility (mole fraction) (in water, 278.15 K): 5.32e-05 | solubility (mole fraction) (in water, 283.15 K): 6.38e-05 | solubility (mole fraction) (in water, 288.15 K): 7.98e-05 | solubility (mole fraction) (in water, 293.15 K): 9.78e-05 | solubility (mole fraction) (in water, 298.15 K): 0.00012 | solubility (mole fraction) (in water, 303.15 K): 0.000146 | solubility (mole fraction) (in water, 308.15 K): 0.000176 | solubility (mole fraction) (in water, 313.15 K): 0.00021 | solubility (mole fraction) (in water, 318.15 K): 0.00025 | solubility (mole fraction) (in water, 323.15 K): 0.000298

Source: BigSolDB 2.1
